Experimental data published in ChEMBL document CHEMBL4152300, “Discovery of the selective and efficacious inhibitors of FLT3 mutations” (Eur J Med Chem, 2018).

How the values were obtained:
[1] = target: CDK2 (cyclin-dependent kinase 2) (Homo sapiens, UniProt P24941); experiment: Inhibition of CDK2 (unknown origin) assessed as residual activity at 0.123 uM by Hotspot assay relative to control; details: CDK2 enzyme (unknown origin), read-out: Activity
[2] = Half life in human liver microsomes preincubated for 5 mins followed by NADPH addition by LC-MS/MS analysis; type: ADME, microsome
[3] = Intrinsic clearance in human liver microsomes preincubated for 5 mins followed by NADPH addition by LC-MS/MS analysis; type: ADME, microsome; details: read-out: CLH
[4] = Drug uptake in human liver microsomes up to 60 mins by LC-MS/MS analysis; type: ADME, microsome; details: 1 h
[5] = target: Vascular endothelial growth factor receptor 1 (Homo sapiens, UniProt P17948); experiment: Inhibition of human FLT1 at 0.123 uM by Hotspot assay relative to control
Vascular endothelial growth factor receptor 1, sequence (P17948 whole entry): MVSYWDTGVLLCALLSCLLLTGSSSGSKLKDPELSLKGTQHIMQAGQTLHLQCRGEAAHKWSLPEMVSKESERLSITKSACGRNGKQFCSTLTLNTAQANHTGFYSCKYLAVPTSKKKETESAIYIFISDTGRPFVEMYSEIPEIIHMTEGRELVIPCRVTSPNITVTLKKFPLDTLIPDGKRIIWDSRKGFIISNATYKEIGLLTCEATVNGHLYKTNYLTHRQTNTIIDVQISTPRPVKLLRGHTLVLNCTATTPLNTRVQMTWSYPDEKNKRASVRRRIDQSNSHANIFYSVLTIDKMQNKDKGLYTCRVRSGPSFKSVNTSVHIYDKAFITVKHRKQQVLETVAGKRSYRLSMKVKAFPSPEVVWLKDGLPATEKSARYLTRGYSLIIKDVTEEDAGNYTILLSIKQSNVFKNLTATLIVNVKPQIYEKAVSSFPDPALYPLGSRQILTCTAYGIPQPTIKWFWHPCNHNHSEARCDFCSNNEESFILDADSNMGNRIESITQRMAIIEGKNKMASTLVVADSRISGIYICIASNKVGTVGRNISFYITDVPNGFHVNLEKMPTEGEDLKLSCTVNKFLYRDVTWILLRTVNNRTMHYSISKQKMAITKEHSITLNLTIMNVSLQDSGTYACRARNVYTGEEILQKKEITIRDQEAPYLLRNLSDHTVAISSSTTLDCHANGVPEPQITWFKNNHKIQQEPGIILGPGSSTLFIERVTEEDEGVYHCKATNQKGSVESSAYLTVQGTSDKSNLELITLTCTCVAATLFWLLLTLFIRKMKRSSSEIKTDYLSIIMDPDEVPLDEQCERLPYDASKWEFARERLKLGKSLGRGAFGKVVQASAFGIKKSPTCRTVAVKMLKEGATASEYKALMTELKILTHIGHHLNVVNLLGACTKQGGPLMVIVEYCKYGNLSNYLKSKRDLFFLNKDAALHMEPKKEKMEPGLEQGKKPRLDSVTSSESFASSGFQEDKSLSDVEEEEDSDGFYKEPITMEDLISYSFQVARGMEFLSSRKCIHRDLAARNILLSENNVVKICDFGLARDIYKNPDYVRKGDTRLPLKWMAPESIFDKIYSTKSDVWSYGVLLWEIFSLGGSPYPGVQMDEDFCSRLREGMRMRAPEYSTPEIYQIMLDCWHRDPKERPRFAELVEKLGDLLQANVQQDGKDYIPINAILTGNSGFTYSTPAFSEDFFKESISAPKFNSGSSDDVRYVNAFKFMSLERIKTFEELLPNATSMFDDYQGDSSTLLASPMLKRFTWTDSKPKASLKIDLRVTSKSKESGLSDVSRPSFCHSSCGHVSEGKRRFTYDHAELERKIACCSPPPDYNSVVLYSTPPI

Homo sapiens = organism: Homo sapiens; experiment: Selectivity ratio of IC50 for human FLT4 to IC50 for human FLT3
[6] = target: Receptor-type tyrosine-protein kinase FLT3 (Homo sapiens, UniProt P36888, ITD); experiment: Inhibition of human FLT3 ITD-W51 mutant by Hotspot assay
[7] = target: Receptor-type tyrosine-protein kinase FLT3 (Homo sapiens, UniProt P36888); experiment: Inhibition of FLT3 in human MV4-11 cells assessed as reduction in STAT5 phosphorylation at Tyr694 residue after 4 hrs by Western blot analysis; type: cell-based
MV4-11 = experiment: Induction of apoptosis in human MV4-11 cells assessed as live cells at 0.2 uM after 24 hrs by Annexin V-FITC/propidium iodide staining based flow cytometry (reference value: 100%); type: functional
[8] = target: T1, Receptor-type tyrosine-protein kinase FLT3 (Homo sapiens, UniProt P36888)
T1 sequence (P36888 whole entry): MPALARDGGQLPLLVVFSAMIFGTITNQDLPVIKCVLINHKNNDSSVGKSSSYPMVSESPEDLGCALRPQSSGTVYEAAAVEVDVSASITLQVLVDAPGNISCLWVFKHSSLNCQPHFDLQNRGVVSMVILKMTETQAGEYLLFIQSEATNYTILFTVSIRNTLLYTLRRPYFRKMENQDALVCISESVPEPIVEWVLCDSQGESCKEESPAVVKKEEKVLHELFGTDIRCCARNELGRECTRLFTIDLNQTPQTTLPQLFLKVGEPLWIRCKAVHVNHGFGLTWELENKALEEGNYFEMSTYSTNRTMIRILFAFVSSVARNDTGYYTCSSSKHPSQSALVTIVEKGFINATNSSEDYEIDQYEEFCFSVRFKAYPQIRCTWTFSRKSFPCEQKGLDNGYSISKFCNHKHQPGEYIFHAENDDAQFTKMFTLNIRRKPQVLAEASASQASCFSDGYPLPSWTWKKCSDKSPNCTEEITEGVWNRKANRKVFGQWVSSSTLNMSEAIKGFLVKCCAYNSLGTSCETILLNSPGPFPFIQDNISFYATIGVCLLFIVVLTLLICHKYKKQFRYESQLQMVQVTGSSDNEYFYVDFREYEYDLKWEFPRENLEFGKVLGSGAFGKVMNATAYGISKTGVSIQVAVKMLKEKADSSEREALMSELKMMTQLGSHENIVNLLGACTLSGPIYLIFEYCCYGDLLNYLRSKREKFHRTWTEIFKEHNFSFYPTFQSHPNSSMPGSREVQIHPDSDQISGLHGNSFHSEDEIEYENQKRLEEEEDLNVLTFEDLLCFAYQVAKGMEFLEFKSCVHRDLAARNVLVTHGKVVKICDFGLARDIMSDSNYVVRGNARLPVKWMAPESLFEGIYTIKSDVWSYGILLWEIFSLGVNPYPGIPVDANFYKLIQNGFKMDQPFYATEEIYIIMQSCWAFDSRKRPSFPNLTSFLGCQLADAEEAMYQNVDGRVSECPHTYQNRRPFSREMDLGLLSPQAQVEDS
Description: Inhibition of human FLT3 by Hotspot assay

Cc1nc2c(c(Nc3c[nH]nc3C(=O)Nc3ccc(N4CCNCC4)cc3)n1)CCC2
activity at 0.123 µM [1]: 86.3% | half-life [2]: 2.45 h | microsomal CLint [3]: 9.4 µL/min/mg | Drug uptake [4]: 28.7% | inhibition [5]: > 50% | Ratio IC50 (Homo sapiens): 120 | IC50 [6]: 12.8 nM | inhibition [7]: Dose-dependent effect | Activity (MV4-11): 62.2% | IC50 [8]: 0.19 to 0.21 nM
